This note sets out measurements from ChEMBL document CHEMBL1157668, “Synthesis and structure-activity relationships of N-benzyl-N-(X-2-hydroxybenzyl)-N'-phenylureas and thioureas as antitumor agents” (Bioorg Med Chem, 2010).

One may read the IC50 as the concentration needed to halve the response being measured. A high value points to weaker potency in that assay.

The target in assay [1] is Receptor tyrosine-protein kinase erbB-2 (Homo sapiens, UniProt P04626). The assay can be described thus: biochemical.
Description: Inhibition of human cloned HER2 autophosphorylation expressed in baculovirus-infected Sf9 cells by solid-phase ELISA
Assay [2] deals with Epidermal growth factor receptor (Homo sapiens, UniProt P00533). Nature of the assay: biochemical.
Description: Inhibition of cloned EGFR autophosphorylation expressed in baculovirus-infected Sf9 cells by solid-phase ELISA
Assay [3] concerns MCF7. Nature of the assay: cells. The following applies: Homo sapiens, MCF7, 48 h.

Bounds are passed on as bounds.

Chain of Receptor tyrosine-protein kinase erbB-2 (P04626 whole entry): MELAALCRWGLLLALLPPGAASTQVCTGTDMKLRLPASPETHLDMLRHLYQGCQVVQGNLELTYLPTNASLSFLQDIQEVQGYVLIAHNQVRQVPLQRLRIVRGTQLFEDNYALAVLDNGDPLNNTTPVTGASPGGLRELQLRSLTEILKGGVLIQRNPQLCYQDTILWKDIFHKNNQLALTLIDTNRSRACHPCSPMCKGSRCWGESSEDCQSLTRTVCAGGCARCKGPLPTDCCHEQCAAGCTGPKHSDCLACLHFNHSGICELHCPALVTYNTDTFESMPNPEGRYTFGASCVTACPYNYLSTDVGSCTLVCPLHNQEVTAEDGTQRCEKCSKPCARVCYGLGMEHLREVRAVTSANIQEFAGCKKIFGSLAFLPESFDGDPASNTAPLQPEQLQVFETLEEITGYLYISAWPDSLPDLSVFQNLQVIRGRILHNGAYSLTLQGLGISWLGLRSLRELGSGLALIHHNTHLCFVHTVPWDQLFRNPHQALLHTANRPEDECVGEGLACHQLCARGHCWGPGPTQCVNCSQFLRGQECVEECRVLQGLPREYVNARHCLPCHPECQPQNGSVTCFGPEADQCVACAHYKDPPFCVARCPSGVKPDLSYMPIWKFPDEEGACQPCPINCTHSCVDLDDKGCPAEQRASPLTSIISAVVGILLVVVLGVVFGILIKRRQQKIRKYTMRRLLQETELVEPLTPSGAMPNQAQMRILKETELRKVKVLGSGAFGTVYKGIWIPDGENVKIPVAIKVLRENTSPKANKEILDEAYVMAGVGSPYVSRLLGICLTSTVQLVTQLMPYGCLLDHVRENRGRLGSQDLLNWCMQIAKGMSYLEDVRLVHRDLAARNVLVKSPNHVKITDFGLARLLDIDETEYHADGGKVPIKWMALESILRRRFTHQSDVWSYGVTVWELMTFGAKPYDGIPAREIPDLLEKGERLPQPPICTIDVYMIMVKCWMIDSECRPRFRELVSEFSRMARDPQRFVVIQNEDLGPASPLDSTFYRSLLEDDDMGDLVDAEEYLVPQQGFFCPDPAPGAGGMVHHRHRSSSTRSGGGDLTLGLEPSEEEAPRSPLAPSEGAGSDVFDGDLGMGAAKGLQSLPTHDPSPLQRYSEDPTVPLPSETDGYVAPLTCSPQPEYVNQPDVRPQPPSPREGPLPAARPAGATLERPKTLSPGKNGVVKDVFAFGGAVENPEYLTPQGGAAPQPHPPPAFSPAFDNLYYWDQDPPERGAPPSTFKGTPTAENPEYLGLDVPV
Chain of Epidermal growth factor receptor (P00533 whole entry): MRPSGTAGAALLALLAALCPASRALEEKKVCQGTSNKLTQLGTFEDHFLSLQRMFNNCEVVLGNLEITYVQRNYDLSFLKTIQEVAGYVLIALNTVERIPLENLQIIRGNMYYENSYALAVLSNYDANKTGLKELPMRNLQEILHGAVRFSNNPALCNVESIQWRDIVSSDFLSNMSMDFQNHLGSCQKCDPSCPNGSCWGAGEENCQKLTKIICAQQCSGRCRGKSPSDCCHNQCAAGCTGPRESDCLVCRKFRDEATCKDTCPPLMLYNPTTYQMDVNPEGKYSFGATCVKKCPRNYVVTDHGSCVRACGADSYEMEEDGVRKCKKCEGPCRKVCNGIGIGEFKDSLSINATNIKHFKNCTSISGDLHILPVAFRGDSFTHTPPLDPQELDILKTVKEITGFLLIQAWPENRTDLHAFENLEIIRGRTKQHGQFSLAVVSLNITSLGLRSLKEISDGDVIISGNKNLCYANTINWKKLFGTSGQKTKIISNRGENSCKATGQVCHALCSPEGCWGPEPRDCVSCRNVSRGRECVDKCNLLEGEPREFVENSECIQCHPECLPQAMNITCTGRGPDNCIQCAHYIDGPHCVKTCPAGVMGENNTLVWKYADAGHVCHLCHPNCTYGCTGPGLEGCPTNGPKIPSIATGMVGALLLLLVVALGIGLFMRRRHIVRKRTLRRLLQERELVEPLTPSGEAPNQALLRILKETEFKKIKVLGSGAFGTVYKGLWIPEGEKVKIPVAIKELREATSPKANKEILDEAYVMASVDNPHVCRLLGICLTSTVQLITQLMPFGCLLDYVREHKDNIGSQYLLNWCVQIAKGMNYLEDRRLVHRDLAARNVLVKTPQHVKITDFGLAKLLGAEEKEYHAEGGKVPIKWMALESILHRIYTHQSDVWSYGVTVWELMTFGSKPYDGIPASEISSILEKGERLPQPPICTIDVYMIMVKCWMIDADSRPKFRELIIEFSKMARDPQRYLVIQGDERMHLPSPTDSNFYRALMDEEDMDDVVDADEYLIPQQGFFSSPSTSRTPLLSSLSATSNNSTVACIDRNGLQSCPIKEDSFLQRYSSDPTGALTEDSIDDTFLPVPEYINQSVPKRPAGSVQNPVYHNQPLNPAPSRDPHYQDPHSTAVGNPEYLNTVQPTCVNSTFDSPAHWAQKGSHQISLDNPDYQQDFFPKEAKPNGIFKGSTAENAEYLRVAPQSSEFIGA

As to `CCCCN(Cc1cc(Cl)cc(Cl)c1O)C(=S)Nc1ccccc1`, the IC50 in assay [1] worked out at 39.8 µM; in assay [2], 24.6 µM; in assay [3], 12.8 µM.
The like results for `Cc1cccc(CN(Cc2ccc(F)cc2)C(=S)Nc2ccccc2)c1O` were, in that order, 15.7 µM, 8.54 µM and 3.8 µM.
Take `Cc1cc(C)c(O)c(CN(Cc2ccc(O)cc2)C(=O)Nc2ccccc2)c1`: the IC50 in assay [1] amounted to 16.1 µM; in assay [2] it was 9.26 µM; in assay [3], 8.5 µM.
The like results for `CCCCN(Cc1cccc(C)c1O)C(=O)Nc1ccccc1` were, in that order, over 50 µM, over 50 µM and 52 µM.
As to `Oc1c(Br)cc(Br)cc1CN(Cc1ccc(F)cc1)C(=S)Nc1ccccc1`, the IC50 turned out to be 6.73 µM in assay [1], 1.76 µM in assay [2] and 1.7 µM in assay [3].
The matching figures for `CCCCN(Cc1cccc(Br)c1O)C(=S)Nc1ccccc1`: 39.5 µM, 22 µM and 14.2 µM.
For the compound `CCCCN(Cc1cccc(Cl)c1O)C(=S)Nc1ccccc1`, the IC50 in assay [1] came out at 32.5 µM; in assay [2], 18.1 µM; in assay [3], 7.4 µM.
The matching figures for `Cc1cc(C)c(O)c(CN(Cc2ccccc2)C(=S)Nc2ccccc2)c1`: over 50 µM, over 50 µM and 34.1 µM.
Consider `Cc1cc(C)c(O)c(CN(Cc2ccc(F)cc2)C(=O)Nc2ccccc2)c1`, for which the figures for the IC50 in assay [1], in assay [2] and in assay [3] were over 50 µM, 27.4 µM and 6.6 µM, respectively.
The like results for `CCCCN(Cc1cccc(Br)c1O)C(=O)Nc1ccccc1` were, in that order, over 50 µM, 36.9 µM and 9.1 µM.
The like results for `Cc1cccc(CN(Cc2ccc(F)cc2)C(=O)Nc2ccccc2)c1O` were, in that order, 38.2 µM, 21.7 µM and 5.5 µM.
The like results for `CCCCN(Cc1cc(C)cc(C)c1O)C(=O)Nc1ccccc1` were, in that order, over 50 µM, over 50 µM and 26 µM.
For `CCCCN(Cc1cc(Br)cc(Br)c1O)C(=O)Nc1ccccc1`, the values for the IC50 in assay [1], in assay [2] and in assay [3] were over 50 µM, over 50 µM and 35 µM, respectively.
Consider `O=C(Nc1ccccc1)N(Cc1ccc(F)cc1)Cc1cccc(Cl)c1O`, for which the IC50 in assay [1] was 3.45 µM; in assay [2], 1.98 µM; in assay [3], 1.1 µM.
The like results for `O=C(Nc1ccccc1)N(Cc1ccc(O)cc1)Cc1cc(Cl)cc(Cl)c1O` were, in that order, 2.21 µM, 1.86 µM and 1.1 µM.
The matching figures for `Oc1ccc(CN(Cc2cccc(Br)c2O)C(=S)Nc2ccccc2)cc1`: 0.66 µM, 0.12 µM and 0.06 µM.
The like results for `O=C(Nc1ccccc1)N(Cc1ccc(O)cc1)Cc1cccc(Cl)c1O` were, in that order, 2.27 µM, 0.96 µM and 0.19 µM.
Turning to `Oc1ccc(CN(Cc2cc(Cl)cc(Cl)c2O)C(=S)Nc2ccccc2)cc1`, the IC50 in assay [1] worked out at 1.23 µM; in assay [2] it was 0.56 µM; in assay [3], 0.22 µM.
The like results for `Oc1ccc(CN(Cc2cccc(Cl)c2O)C(=S)Nc2ccccc2)cc1` were, in that order, 0.35 µM, 0.08 µM and 0.03 µM.
The matching figures for `Cc1cc(C)c(O)c(CN(Cc2ccc(O)cc2)C(=S)Nc2ccccc2)c1`: 9.47 µM, 5.83 µM and 2.6 µM.
With `CCCCN(Cc1cccc(C)c1O)C(=S)Nc1ccccc1`, the figures for the IC50 in assay [1], in assay [2] and in assay [3] were over 50 µM, 43.2 µM and 23.6 µM, respectively.
Consider `O=C(Nc1ccccc1)N(Cc1ccc(F)cc1)Cc1cc(Cl)cc(Cl)c1O`, for which the IC50 worked out at 9.64 µM in assay [1], 4.15 µM in assay [2] and 2.8 µM in assay [3].
The matching figures for `Cc1cccc(CN(Cc2ccc(O)cc2)C(=O)Nc2ccccc2)c1O`: 18.4 µM, 7.51 µM and 5.3 µM.
As to `Cc1cccc(CN(Cc2ccc(O)cc2)C(=S)Nc2ccccc2)c1O`, the results for the IC50 in assay [1] and in assay [3] were 7.13 µM and 1.2 µM, respectively.
Take `CCCCN(Cc1cc(Cl)cc(Cl)c1O)C(=O)Nc1ccccc1`: the IC50 in assay [1] was over 50 µM; in assay [2], over 50 µM; in assay [3] it was 30 µM.
Consider `CCCCN(Cc1cc(Br)cc(Br)c1O)C(=S)Nc1ccccc1`, for which the IC50 is over 50 µM in assay [1], 31.9 µM in assay [2] and 16.7 µM in assay [3].
The like results for `Oc1c(Cl)cccc1CN(Cc1ccc(F)cc1)C(=S)Nc1ccccc1` were, in that order, 1.41 µM, 0.67 µM and 0.52 µM.
The matching figures for `O=C(Nc1ccccc1)N(Cc1ccc(O)cc1)Cc1cccc(Br)c1O`: 2.66 µM, 1.07 µM and 0.25 µM.
The matching figures for `Cc1cc(C)c(O)c(CN(Cc2ccc(F)cc2)C(=S)Nc2ccccc2)c1`: 37.8 µM, 19.4 µM and 10.5 µM.
Take `Oc1ccc(CN(Cc2cc(Br)cc(Br)c2O)C(=S)Nc2ccccc2)cc1`: the figures for the IC50 in assay [1], in assay [2] and in assay [3] were 2.24 µM, 0.87 µM and 0.36 µM, respectively.
The like results for `O=C(Nc1ccccc1)N(Cc1ccc(F)cc1)Cc1cc(Br)cc(Br)c1O` were, in that order, 12.4 µM, 4.68 µM and 3.6 µM.
The like results for `Oc1c(Cl)cc(Cl)cc1CN(Cc1ccc(F)cc1)C(=S)Nc1ccccc1` were, in that order, 6.49 µM, 1.34 µM and 1.1 µM.
The like results for `CCCCN(Cc1cccc(Cl)c1O)C(=O)Nc1ccccc1` were, in that order, over 50 µM, 32.1 µM and 9.3 µM.
For the compound `Oc1c(Br)cccc1CN(Cc1ccc(F)cc1)C(=S)Nc1ccccc1`, the IC50 stood at 1.87 µM in assay [1], 0.98 µM in assay [2] and 0.73 µM in assay [3].
The like results for `O=C(Nc1ccccc1)N(Cc1ccc(O)cc1)Cc1cc(Br)cc(Br)c1O` were, in that order, 4.53 µM, 1.12 µM and 1.32 µM.
In the case of `O=C(Nc1ccccc1)N(Cc1ccc(F)cc1)Cc1cccc(Br)c1O`, the IC50 is 5.17 µM in assay [1], 2.24 µM in assay [2] and 1.4 µM in assay [3].
